Assay: Henry solubility constant Hcp at 298.15 K (mol/(m3 Pa))
Conditions: reference: Altschuh et al. (1999)

Structure (SMILES) | Henry solubility constant Hcp
Clc1ccc(C(c2ccc(Cl)cc2)C(Cl)(Cl)Cl)cc1 [1,1,1-trichloro-2,2-bis-(4-chlorophenyl)-ethane] | 1.2
Clc1ccc(C(c2ccc(Cl)cc2)C(Cl)Cl)cc1 [1,1-dichloro-2,2-bis-(4-chlorophenyl)-ethane] | 1.5
ClC(Cl)=C(c1ccc(Cl)cc1)c1ccc(Cl)cc1 [1,1-dichloro-2,2-bis-(4-chlorophenyl)-ethene] | 0.24
CCC(O)CO (stereo unspecified) [1,2-butanediol] | > 340
O=[N+]([O-])c1ccc(Cl)c(Cl)c1 [1,2-dichloro-4-nitrobenzene] | 1.2
OCCCCO [1,4-butanediol] | > 900
O=[N+]([O-])c1cc(Cl)ccc1Cl [1,4-dichloro-2-nitrobenzene] | 0.82
Nc1cccc(Cl)c1 [1-amino-3-chlorobenzene] | 9.8
CCCCN [1-butanamine] | 0.56
CCCCCCCCCCO [1-decanol] | 0.31
CCc1cccc2ccccc12 [1-ethylnaphthalene] | 0.014
CCCCCCCO [1-heptanol] | 0.86
CCCCCCO [1-hexanol] | 0.98
Cc1ccccc1O [1-hydroxy-2-methylbenzene] | 6.3
Cc1cccc(O)c1 [1-hydroxy-3-methylbenzene] | 12
Cc1ccc(O)cc1 [1-hydroxy-4-methylbenzene] | > 2.9
Cc1cccc2ccccc12 [1-methylnaphthalene] | 0.019
Nc1cccc2ccccc12 [1-naphthylamine] | 160
O=[N+]([O-])c1cccc2ccccc12 [1-nitronaphthalene] | 5.6
CCCCCCCCO [1-octanol] | 0.65
CCCO [1-propanol] | 2.7
CCCCCCCCCCCCCN [1-tridecanamine] | 0.09

Structure (SMILES) | Henry solubility constant Hcp
OCC#CCO [2-butyne-1,4-diol] | > 2000
Nc1ccc([N+](=O)[O-])cc1Cl [2-chloro-4-nitrobenzenamine] | 1000
CCc1ccc2ccccc2c1 [2-ethylnaphthalene] | 0.018
CC(C)CO [2-methyl-1-propanol] | 1.1
C=CC(C)(C)O [2-methyl-3-buten-2-ol] | 0.47
C#CC(C)(C)O [2-methyl-3-butyn-2-ol] | 2.5
Cc1ccccc1N [2-methylbenzenamine] | 5
Cc1ccc2ccccc2c1 [2-methylnaphthalene] | 0.016
Nc1ccccc1[N+](=O)[O-] [2-nitrobenzenamine] | 170
OCCc1ccccc1 [2-phenylethanol] | > 37
CC(C)O [2-propanol] | 0.92
C=CC(C)(O)CCC=C(C)C (stereo unspecified) [3,7-dimethyl-1,6-octadien-3-ol] | 0.46
O=[N+]([O-])c1cccc(Cl)c1 [3-chloronitrobenzene] | 0.73
Cc1cccc(N)c1 [3-methylbenzenamine] | 5.9
CC1CCCC(O)C1 (stereo unspecified) [3-methylcyclohexanol] | 2.7
Cc1cccc([N+](=O)[O-])c1 [3-nitrotoluene] | 1.1
OCCCc1ccccc1 [3-phenyl-1-propanol] | > 180
O=[N+]([O-])c1ccc(Cl)cc1 [4-chloronitrobenzene] | 2
Nc1ccc([N+](=O)[O-])cc1 [4-nitrobenzenamine] | 8600
Cc1ccc([N+](=O)[O-])cc1 [4-nitrotoluene] | 1.8
OCCCCc1ccccc1 [4-phenyl-1-butanol] | > 6.7
CCNc1ccccc1 [(ethylamino)-benzene] | 1

Structure (SMILES) | Henry solubility constant Hcp
OCc1ccccc1 [(hydroxymethyl)-benzene] | > 37
CCCCCCCCCCCCN(C)C [N,N-dimethyl-1-dodecanamine] | > 4
CN(C)C1CCCCC1 [N,N-dimethylcyclohexylamine] | 0.42
ClC1=C(Cl)[C@]2(Cl)[C@H]3[C@H]([C@@H]4C=C[C@H]3C4)[C@@]1(Cl)C2(Cl)Cl [aldrin] | 0.22
Nc1ccccc1 [aminobenzene] | 5.2
c1ccccc1 [benzene] | 0.0037
c1ccc2c(c1)cc1ccc3cccc4ccc2c1c34 [benzo[a]pyrene] | 13
OC1CCCCCCCCCCC1 [cyclododecanol] | 3.4
NC1CCCCC1 [cyclohexanamine] | 2.4
CCCCNCCCC [dibutylamine] | 1
ClC1=C(Cl)[C@]2(Cl)[C@@H]3[C@@H]4C[C@@H]([C@H]5O[C@@H]45)[C@@H]3[C@@]1(Cl)C2(Cl)Cl [dieldrin] | 0.98
ClC1=C(Cl)[C@]2(Cl)[C@@H]3[C@H]4C[C@H]([C@@H]5O[C@H]45)[C@@H]3[C@@]1(Cl)C2(Cl)Cl [endrin] | 1.6
CCO [ethanol] | 1.3
ClC1=C(Cl)C2(Cl)C3C(Cl)C=CC3C1(Cl)C2(Cl)Cl (stereo unspecified) [heptachlor] | 0.034
ClC1=C(Cl)C2(Cl)C3C4OC4C(Cl)C3C1(Cl)C2(Cl)Cl (stereo unspecified) [heptachlorepoxide] | 0.47
COc1ccc(C(c2ccc(OC)cc2)C(Cl)(Cl)Cl)cc1 [methoxychlor] | 49
Cc1ccccc1 [methylbenzene] | 0.0017
c1ccc2ccccc2c1 [naphthalene] | 0.018
O=[N+]([O-])c1ccccc1 [nitrobenzene] | 1.2
ClC1C(Cl)C(Cl)C(Cl)C(Cl)C1Cl (stereo not drawn) [α-1,2,3,4,5,6-hexachlorocyclohexane] | 0.81
ClC1C(Cl)C(Cl)C(Cl)C(Cl)C1Cl (stereo not drawn) [β-1,2,3,4,5,6-hexachlorocyclohexane] | 22
ClC1C(Cl)C(Cl)C(Cl)C(Cl)C1Cl (stereo unspecified) [γ-1,2,3,4,5,6-hexachlorocyclohexane] | 1.9
